What was measured:
HLA-A2 [1] = test: Peptide binding assay on T2 cells; design: species or system human; conditions: 50 µg/ml peptide, 37°C 18 h, FITC anti-HLA-A2 (BB7.2), flow cytometry, FI = (MFI peptide − MFI background)/MFI background
Protocol: Peptide binding affinity to HLA-A2 was assessed using T2 cells, a cell line that expresses HLA-A2 molecules but is deficient in antigen presentation. […] After incubation, the cells were washed in Phosphate buffered saline (PBS) and further incubated with FITC-conjugated anti-HLA-A2 antibody (BB7.2; BD Biosciences) at 4°C for 45 min. The cells were then washed and re-suspended with 300 µl of PBS and subjected to flow cytometer analysis (FACS Calibur, BD Biosciences). The fluorescence index (FI) was calculated as follows: FI = mean fluorescence intensity (MFI) with the given peptide − MFI without peptide/MFI without peptide.

peptide/HLA-A2 complex = peptide/HLA-A2 complex (Homo sapiens, UniProt P04439, D140Y/D185E/D98H/E176V/E277Q/G131W/G231S/I119V/I121R/I166T/I218V/L300P/L318F/N151K/N90K/P208A/P217A/Q86G/Q94H/R138H/R169H/T345S); test: Peptide/HLA-A2 complex stability assay on T2 cells; assay type: binding; conditions: 50 μM peptide + β2 microglobulin 2.5 μg/ml, 18 h 37°C, brefeldin A 1 h, read at 0, 2, 4, 6 h, flow cytometry
Protocol: T2 cells were collected and placed in 24-well plates (1 × 10^6/ml), 1 ml in each well. Predictive peptides (50 μM) and β2 microglobulin (2.5 μg/ml) were added, respectively. […] After the incubation, T2 cells were washed twice with cold PBS to clear the unbound peptide, then brefeldin A (10 μg/m) was added and incubated for 1 h. Then, cells were washed and incubated at 37°C for 0, 2, 4, and 6 h; FITC-labeled mouse anti-human HLA-A2 monoclonal antibody was added and incubated at 4°C for 30 min under dark conditions. The MFI of cells was detected by flow cytometry after washing twice. The results are expressed as dissociation complex 50 (DC50), meaning the time required for the loss of 50% of the stabilized peptide/complex.

autologous T cells = conditions: T cells with peptide-pulsed autologous DCs 10:1, 72 h; versus DCs without peptide
Protocol: PBMCs were isolated from the peripheral blood samples of 8 HLA-A2^+ healthy donors, with University Ethics Review Committee-approved, written consent. The effector T lymphocytes and DCs were prepared by our published method ([31]). CD8^+ T cells were isolated from PBMCs using CD8^+ negative selection MicroBeads EasySep™ Human CD8^+ T Cell Isolation Kit (17953, stemcell) according to the manufacturers.
For T-cell stimulation, T cells were cultured with RPMI1640 complete medium containing IL-2 (20 ng/ml) mixed with peptide-pulsed autologous DCs at a ratio of 10:1 and co-cultured for 72 h. The supernatant of DCs and T cells co-cultured for 72h was used to detect IL-2 and γ-IFN. The capacity of peptide-pulsed DCs to stimulate the proliferation of autologous T cells was evaluated using a Cell Counting Kit-8 (CCK-8, Beiltime Biotec, China), as described using our published method ([31]). CCK-8 solution (20 μl/well) was added in 2 h before the end of culture. Then, the optical density (OD) was measured by microplate tester. The stimulation index (SI) is calculated according to the following formula: SI = (experiment well OD value − background OD value)/(blank control well OD value − background OD value).

U251 = test: LDH cytotoxicity assay and HLA block, U251; assay type: cell-based, human; conditions: DAC + TSA-treated U251, E:T 50:1, 4 h
Protocol: (§1) The human glioma cell lines (U87-MG and U251) were obtained from the Cell Bank of Type Culture Collection of the Chinese Academy of Science (Shanghai, China). Decitabine (DAC, CAS No. A3656), valproic acid (VPA, CAS No. 99-66-1), and trichostatin A (TSA, CAS No. 58880-19-6) were purchased from Sigma-Aldrich Corporation (St. Louis, MO, USA). DAC and TSA were dissolved in DMSO to a concentration of 10 mM. Aliquots were stored at −80°C and diluted with media before being used. Drug treatments were divided into seven groups: (1) DAC group: cells were cultured in medium on the presence of 1 μM DAC for 120 h; (2) VPA group: cells were grown in medium containing 1 mM VPA for 120 h; (3) TSA group: cells were cultured in medium supplemented with 1 μM TSA for 24 h; (4) D + V group: cells were cultured with 1 μM DAC and 1 mM VPA for 120 h; (5) D + T group: cells were cultured with 1 μM DAC for 120 h, followed by 1 μM TSA for 24 h; (6) Control group: cells were cultured with 0.09% DMSO, which is the highest concentration of DMSO used in this study in consideration of the potential toxicity of DMSO to living cells. Human recombinant interleukin (IL) IL-2, IL-4, and human recombinant granulocyte/macrophage colony-stimulating factor (GM-CSF) were purchased from R&D Systems.
The cytotoxic activity of MAGE-D4 peptide-specific CTLs to glioma cells was determined according to the instructions of the manufacturers by our published method ([31]). […] Four hours later, suspended cells were collected for CD107a flow cytometry, meanwhile, the supernatant was collected and analyzed with granzyme A and perforin ELISA kit (Cloud-Clone Corporation, Wuhan, China) at 450 nm, and the LDH kit (Promega, USA) at 490 nm. The percentage of specific lysis was calculated using the following formula: [(experimental release − spontaneous release)/(maximum release − spontaneous release)] × 100. […] Then, the cytotoxicity assay was measured and calculated as mentioned above.

MAGE-D4 promoter [2] = test: Pyrosequencing of MAGE-D4 promoter in U251; assay type: cell-based, human; conditions: U251, compared with control group
Protocol: as §1, with “Decitabine (DAC, CAS No.” left out, “-80°C” for “−80°C”, “Systems. Genomic DNA was isolated from cells using a DNA Isolation Kit (Vazyme, China). The methylation status of the MAGE-D4 promoter in cells was quantified by the PyroMark Q96 ID pyrosequencing platform (Qiagen), which was performed by Shanghai […] Biotech Co., Ltd. The methylation status of each site was analyzed automatically by the accompanying software Pyro Q-CpG (Qiagen). Two regions in the core promoter were detected, which contained 18 CpG sites. Primers used in pyrosequencing were as follows: region 1: [NT] (forward) and [NT] (reverse); region 2: [NT] (forward) and [NT] (reverse). Sequences of the MAGE-D4 promoter and pyrosequencing regions containing CpG sites are listed in Supplemental Materials.” for “Systems.”

MAGE-D4 promoter [3] = test: Pyrosequencing of MAGE-D4 promoter in U87; assay type: cell-based, human; conditions: U87, compared with control group
Protocol: The human glioma cell lines (U87-MG and U251) were obtained from the Cell Bank of Type Culture Collection of the Chinese Academy of Science (Shanghai, China). […] A3656), valproic acid (VPA, CAS No. 99-66-1), and trichostatin A (TSA, CAS No. 58880-19-6) were purchased from Sigma-Aldrich Corporation (St. Louis, MO, USA). DAC and TSA were dissolved in DMSO to a concentration of 10 mM. Aliquots were stored at -80°C and diluted with media before being used. […] The methylation status of the MAGE-D4 promoter in cells was quantified by the PyroMark Q96 ID pyrosequencing platform (Qiagen), which was performed by Shanghai […] Biotech Co., Ltd. The methylation status of each site was analyzed automatically by the accompanying software Pyro Q-CpG (Qiagen). Two regions in the core promoter were detected, which contained 18 CpG sites. […]

HLA-A2 [4] = test: HLA-A2 expression in U251; assay type: cell-based, human; conditions: DAC 1 μM 120 h, TSA 1 μM 24 h
Protocol: as §1, with “Decitabine (DAC, CAS No.” left out, “-80°C” for “−80°C”, “[…] The cells were then harvested, washed with PBS buffer three times,” for “Human recombinant interleukin (IL) IL-2, IL-4,”, “analyzed by a FACScan flow cytometer (BD Biosciences, Franklin Lakes, NJ, USA) using BD AccuriTM C6 Software (BD Biosciences).” for “human recombinant granulocyte/macrophage colony-stimulating factor (GM-CSF) were purchased from R&D Systems.”

IL-2 = IL-2 ELISA of DC/T-cell co-culture supernatant; assay type: cell-based, human; conditions: 72 h co-culture supernatant, versus negative control peptide
Protocol: Production of cytokines in the supernatants was determined using commercially available ELISA kits (Cloud-Clone Corporation, Wuhan, China) according to the protocol of the manufacturer. Approximately 50 μl of supernatant and different concentration standards were added and mixed with 100 μl of horseradish peroxidase (HRP) labeled detection antibody against a 96-well plate, respectively, except for the blank control. After incubation at 37°C for 60 min, we washed the plate five times. Add substrate A and substrate B 50 μl respectively, incubate for 15min in a 37°C incubator in dark. Then, 50 μl of stop solution was added and a 450 nm absorbance value (OD value) was measured within 15 min. The regression equation of the standard curve is calculated according to the concentration of the standard substance and the OD value, and the corresponding sample concentration is calculated on the basis of the regression equation.

Compound: TLTSFDIHI [Peptide P2]
- FI (fluorescence index, HLA-A*0201 binding affinity) (HLA-A2 [1]): 0.877

Compound: ILSNEPWEL [Peptide P4]
- DC50 (time required for 50% dissociation of the HLA-A*0201/peptide complex) (peptide/HLA-A2 complex): >2 h
- stimulation index (SI), T-cell proliferation, CCK8 (autologous T cells): can induce T-cell proliferation
- cytotoxicity of peptide-specific T cells (specific lysis, LDH) (U251): cytotoxicity on the DAC + TSA-treated U251 cells with statistical significance

Compound: SVQSESYSV [Peptide P1]
- FI (fluorescence index, HLA-A*0201 binding affinity) (HLA-A2 [1]): 0.007

Compound: CCCC(CCC)C(=O)O [VPA, valproic acid]
- methylation level of MAGE-D4 promoter region 1 (MAGE-D4 promoter [2]): decreased significantly
- methylation level of MAGE-D4 promoter region 2 (MAGE-D4 promoter [2]): decreased significantly
- total methylation levels of regions 1 and 2 of MAGE-D4 core promoter (MAGE-D4 promoter [2]): decreased significantly
- methylation level of MAGE-D4 promoter region 1 (MAGE-D4 promoter [3]): decreased significantly

Compound: SLGPGLRIL [Peptide P3]
- FI (fluorescence index, HLA-A*0201 binding affinity) (HLA-A2 [1]): 0.887

Compound: Nc1ncn([C@H]2C[C@H](O)[C@@H](CO)O2)c(=O)n1 [DAC, Decitabine]
- HLA-A2 levels (HLA-A2 [4]): elevated HLA-A2 levels with statistical significance
- methylation level of MAGE-D4 promoter region 1 (MAGE-D4 promoter [2]): decreased significantly
- methylation level of MAGE-D4 promoter region 1 (MAGE-D4 promoter [3]): decreased significantly

Compound: VLCLPPRNV [Peptide P7]
- DC50 (time required for 50% dissociation of the HLA-A*0201/peptide complex) (peptide/HLA-A2 complex): <2 h

Compound: ALQLDPETL [Peptide P5]
- IL-2 secreted by DC-stimulated T cells (IL-2): higher IL-2
- stimulation index (SI), T-cell proliferation, CCK8 (autologous T cells): can induce T-cell proliferation

— PMC9382192, “Combined treatment with epigenetic agents enhances anti-tumor activity of MAGE-D4 peptide-specific T cells by upregulating the MAGE-D4 expression in glioma” (Frontiers in Oncology, 2022)
